According to article PMC10586543 (Advanced functional materials, 2023):

Experiments:
human α-thrombin = human α-thrombin (Homo sapiens, UniProt P00734); assay: In vitro specificity reaction with off-target protease; details: free peptide; 13.5 nM human α-thrombin; TCNB buffer; 37 °C, 1 h; fluorescence (Figure S2)
human recombinant MMP-9 = human recombinant MMP-9 (Homo sapiens, UniProt P14780); assay: as above; details: free peptide; 15 nM human recombinant MMP-9; TCNB buffer; 37 °C, 1 h; fluorescence (Figure S2)
Chain of human recombinant MMP-9 (P14780 107-444 limits assumed): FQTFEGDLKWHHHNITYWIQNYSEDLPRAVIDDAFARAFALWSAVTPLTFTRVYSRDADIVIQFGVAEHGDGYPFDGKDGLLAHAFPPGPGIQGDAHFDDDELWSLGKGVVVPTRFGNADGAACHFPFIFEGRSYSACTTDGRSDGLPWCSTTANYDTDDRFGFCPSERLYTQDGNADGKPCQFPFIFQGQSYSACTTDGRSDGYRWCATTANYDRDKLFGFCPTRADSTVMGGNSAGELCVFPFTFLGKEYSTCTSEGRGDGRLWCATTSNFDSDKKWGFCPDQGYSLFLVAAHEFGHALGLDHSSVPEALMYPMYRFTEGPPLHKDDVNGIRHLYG

Q: Which results are given for “Biotin-GGSGG-K(5FAM)-QEVYGAMP-K(CPQ2)-C-NH2 [calpain substrate peptide]”?
A: activation after incubation with α-thrombin (human α-thrombin): did not activate; activation after incubation with MMP9 (human recombinant MMP-9): did not activate
